US11279733B2, “Peptide antibiotics” (priority 2017, dated 2022)
Values after ≈ are worked out from the molar mass of the structure shown. Where two headings read alike, the source gives them in different places. Positions of bridges follow the written chain, without caps; N, C: chain ends. Non-standard residues stand in square brackets, D forms with d. Residues, ends and D or L forms follow the SMILES beside them. *: point of attachment. Isonicotinoyl(2-Ph) = O=C(c1ccnc(-c2ccccc2)c1)*; Decanoyl(3R-OH) = CCCCCCC[C@@H](O)CC(=O)*; X11 = CCCCCCCNc1ccc(C(=O)*)cc1; X9 = CCCCCC1CCC(C(=O)*)CC1; dDab = NCC[C@@H](N)C(=O)O; Dab = NCC[C@H](N)C(=O)O

How the values were obtained:
in vitro = settings: human
Outline: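 HK2 cells were seeded at 2000 per well in DMEM/F12 with 10% FBS and left to attach for 24 h at 37 °C, 5% CO2. They were then exposed for 24 h to 3-fold peptide dilutions starting from 600 μM solutions in quadruplicate. LDH release was read at 450 nm, and CC50 was fitted from dose-response curves.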

[1] = test system: S. aureus ATCC 25923, MSSA; settings: ATCC 25923
Outline: (§1)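 Mid-log cultures grown in Mueller Hinton broth at 37° C were tested by 2-fold broth microdilution at 5×10^5 CFU/mL final. Compounds were dissolved in water and tested over a final range of 32 to 0.015 μg/mL.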

[2] = test system: P. aeruginosa GN_105, PmxR; settings: GN 105, PmxR
Outline: as §1

A. baumannii ATCC 19606 = settings: ATCC 19606
Outline: as §1

A. baumannii GN_093 PmxR = settings: GN 093 PmxR
Outline: as §1

E. coli ATCC 25922 = settings: ATCC 25922
Outline: as §1

[3] = test system: K. pneumoniae GN_102 PmxR; settings: GN 102 PmxR
Outline: as §1

K. pneumoniae ATCC 13883 = settings: ATCC 13883
Outline: as §1

[4] = test system: K. pneumoniae GN_106, PmxR; settings: GN 106, PmxR
Outline: as §1

[5] = test system: K. pneumoniae ATCC 700603, MDR; settings: ATCC 700603
Outline: as §1

[6] = test system: P. aeruginosa GN_043, PmxR
Outline: as §1

[7] = test system: K. pneumoniae ATCC BAA-2146, NDM-1 pos; settings: ATCC BAA-2146
Outline: as §1

P. aeruginosa ATCC 27853 = settings: ATCC 27853
Outline: as §1

| Compound | CC50 at 24 h (in vitro) [µM] | MIC S. aureus ATCC 25923, MSSA [1] [µg/mL] | MIC P. aeruginosa GN_105, PmxR [2] [µg/mL] | MIC A. baumannii ATCC 19606 (A. baumannii ATCC 19606) [µg/mL] | MIC A. baumannii GN_093 PmxR (A. baumannii GN_093 PmxR) [µg/mL] | MIC E. coli ATCC 25922 (E. coli ATCC 25922) [µg/mL] | MIC K. pneumoniae GN_102 PmxR [3] [µg/mL] | MIC K. pneumoniae ATCC 13883 (K. pneumoniae ATCC 13883) [µg/mL] | MIC K. pneumoniae GN_106, PmxR [4] [µg/mL] | MIC K. pneumoniae ATCC 700603, MDR [5] [µg/mL] | MIC P. aeruginosa GN_043, PmxR ([6]; P. aeruginosa GN_043, PmxR) [µg/mL] | MIC K. pneumoniae ATCC BAA-2146, NDM-1 pos [7] [µg/mL] | MIC P. aeruginosa ATCC 27853 (P. aeruginosa ATCC 27853) [µg/mL] | MIC P. aeruginosa GN_043, PmxR ([6]; polymyxin-resistant) [µg/mL] |
| --- | --- | --- | --- | --- | --- | --- | --- | --- | --- | --- | --- | --- | --- | --- |
| CCCCCCCNc1ccc(C(=O)N[C@H](CCN)C(=O)N[C@H]2CCNC(=O)[C@H]([C@@H](C)O)NC(=O)[C@H](CCN)NC(=O)[C@H](CCN)NC(=O)[C@H](CC(C)C)NC(=O)[C@@H](Cc3ccccc3)NC(=O)[C@H](CCN)NC2=O)cc1 [compound 6403, 4(C7H15NH)PheCO-D-Dab-cyc[L-Dab-L-Dab-D-Phe-L-Leu-L-Dab-L-Dab-L-Thr]] (X11-[dDab][Dab][Dab][dF]L[Dab][Dab]T; lactam 2-C) | > 300 | >32 | >32 | >64 | >32 | >64 | >32 | >64 | >32 | >64 | 32 (≈ 29.6 µM) | >64 | 16 (≈ 14.8 µM) |  |
| CCCCCC1CCC(C(=O)N[C@H](CCN)C(=O)N[C@H]2CCNC(=O)[C@H]([C@@H](C)O)NC(=O)[C@H](CCN)NC(=O)[C@H](CCN)NC(=O)[C@H](CC(C)C)NC(=O)[C@@H](Cc3ccccc3)NC(=O)[C@H](CCN)NC2=O)CC1 (stereo partly drawn) [compound 6404, C11H21CO-D-Dab-cyc[L-Dab-L-Dab-D-Phe-L-Leu-L-Dab-L-Dab-L-Thr]] (X9-[dDab][Dab][Dab][dF]L[Dab][Dab]T; lactam 2-C) | 38 | 8 (≈ 7.68 µM) | 8 (≈ 7.68 µM) | 64 (≈ 61.4 µM) | >32 | 1 (≈ 0.959 µM) | >32 | 16 (≈ 15.4 µM) | >32 | 0.5 (≈ 0.48 µM) | 32 (≈ 30.7 µM) | 1 (≈ 0.959 µM) | 0.25 (≈ 0.24 µM) |  |
| CC(C)C[C@@H]1NC(=O)[C@@H](Cc2ccccc2)NC(=O)[C@H](CCN)NC(=O)[C@@H](NC(=O)[C@@H](CCN)NC(=O)c2ccnc(-c3ccccc3)c2)CCNC(=O)[C@H]([C@@H](C)O)NC(=O)[C@H](CCN)NC(=O)[C@H](CCN)NC1=O [compound 6405, 3Phe4-PyCO-D-Dab-cyc[L-Dab-L-Dab-D-Phe-L-Leu-L-Dab-L-Dab-L-Thr]] ({Isonicotinoyl(2-Ph)}-[dDab][Dab][Dab][dF]L[Dab][Dab]T; lactam 2-C) | > 300 | >32 | >32 | >64 | >32 | >64 | >32 | >64 | >32 | >64 | >32 | >64 | 8 (≈ 7.67 µM) |  |
| CCCCCCC[C@@H](O)CC(=O)N[C@H](CCN)C(=O)N[C@H]1CCNC(=O)[C@H](CCCNC(=N)N)NC(=O)[C@H](CCN)NC(=O)[C@H](CCN)NC(=O)[C@H](CC(C)C)NC(=O)[C@@H](Cc2ccccc2)NC(=O)[C@H](CCN)NC1=O [compound 6508, 3(R)OH-nC9CO-D-Dab-cyc[L-Dab-L-Dab-D-Phe-L-Leu-L-Dab-L-Dab-L-Arg]] ({Decanoyl(3R-OH)}-[dDab][Dab][Dab][dF]L[Dab][Dab]R; lactam 2-C) | 142 | >32 | 32 (≈ 29.4 µM) | >64 | >32 | 16 (≈ 14.7 µM) | >32 | >64 | >32 | 16 (≈ 14.7 µM) |  | >64 | 2 (≈ 1.84 µM) | >32 |
| CCCCCCC[C@@H](O)CC(=O)N[C@H](CCN)C(=O)N[C@H]1CCNC(=O)[C@H](CO)NC(=O)[C@H](CCN)NC(=O)[C@H](CCN)NC(=O)[C@H](CC(C)C)NC(=O)[C@@H](Cc2ccccc2)NC(=O)[C@H](CCN)NC1=O [compound 6510, 3(R)OH-nC9CO-D-Dab-cyc[L-Dab-L-Dab-D-Phe-L-Leu-L-Dab-L-Dab-L-Ser]] ({Decanoyl(3R-OH)}-[dDab][Dab][Dab][dF]L[Dab][Dab]S; lactam 2-C) | 149 | >64 | 16 (≈ 15.7 µM) | >64 | >32 | 1 (≈ 0.982 µM) | >32 | 64 (≈ 62.9 µM) | >32 | 4 (≈ 3.93 µM) |  | 4 (≈ 3.93 µM) | 1 (≈ 0.982 µM) | 1 (≈ 0.982 µM) |
| CCCCCCC[C@@H](O)CC(=O)N[C@H](CCN)C(=O)N[C@H]1CCNC(=O)[C@H](Cc2ccc(O)cc2)NC(=O)[C@H](CCN)NC(=O)[C@H](CCN)NC(=O)[C@H](CC(C)C)NC(=O)[C@@H](Cc2ccccc2)NC(=O)[C@H](CCN)NC1=O [compound 6511, 3(R)OH-nC9CO-D-Dab-cyc[L-Dab-L-Dab-D-Phe-L-Leu-L-Dab-L-Dab-L-Tyr]] ({Decanoyl(3R-OH)}-[dDab][Dab][Dab][dF]L[Dab][Dab]Y; lactam 2-C) | 76 | 32 (≈ 29.2 µM) | 4 (≈ 3.66 µM) | 32 (≈ 29.2 µM) | 32 (≈ 29.2 µM) | 8 (≈ 7.31 µM) | 8 (≈ 7.31 µM) | 8 (≈ 7.31 µM) | 8 (≈ 7.31 µM) | 4 (≈ 3.66 µM) |  | 2 (≈ 1.83 µM) | 2 (≈ 1.83 µM) | 1 (≈ 0.914 µM) |
| CCCCCCC[C@@H](O)CC(=O)N[C@H](CCN)C(=O)N[C@H]1CCNC(=O)[C@H](CCC(=O)O)NC(=O)[C@H](CCN)NC(=O)[C@H](CCN)NC(=O)[C@H](CC(C)C)NC(=O)[C@@H](Cc2ccccc2)NC(=O)[C@H](CCN)NC1=O [compound 6512, 3(R)OH-nC9CO-D-Dab-cyc[L-Dab-L-Dab-D-Phe-L-Leu-L-Dab-L-Dab-L-Glu]] ({Decanoyl(3R-OH)}-[dDab][Dab][Dab][dF]L[Dab][Dab]E; lactam 2-C) | > 300 | >32 | >32 | >64 | >32 | >64 | >32 | >64 | >32 | 64 (≈ 60.4 µM) |  | >64 | 8 (≈ 7.54 µM) | >32 |
| CCCCCCC[C@@H](O)CC(=O)N[C@H](CCN)C(=O)N[C@H]1CCNC(=O)[C@H](CC(=O)O)NC(=O)[C@H](CCN)NC(=O)[C@H](CCN)NC(=O)[C@H](CC(C)C)NC(=O)[C@@H](Cc2ccccc2)NC(=O)[C@H](CCN)NC1=O [compound 6513, 3(R)OH-nC9CO-D-Dab-cyc[L-Dab-L-Dab-D-Phe-L-Leu-L-Dab-L-Dab-L-Asp]] ({Decanoyl(3R-OH)}-[dDab][Dab][Dab][dF]L[Dab][Dab]D; lactam 2-C) | > 300 | >32 | >32 | >64 | >32 | >64 | >32 | >64 | >32 | 64 (≈ 61.2 µM) |  | >64 | 4 (≈ 3.82 µM) | 8 (≈ 7.65 µM) |
